A short description of series [1]: Pharmacokinetic and tissue distribution study via intravenous and oral administration in male C57BL/6 mice. The note with it: for Kp / clearance / Cmax: male, C57BL/6, mouse; for Kp: liver and plasma, po; for Kp / Cmax / Liver AUCinf/Dose / Liver Cmax/Dose / PO AUCinf/Dose: PO; for clearance / IV AUCinf/Dose: IV, nominal 2 mg/kg; for clearance: read-out: IV Cl; for Cmax: dose per compound in table (5.28-9.95 mg/kg); for F: PO vs IV. The series is classed as in vivo. How it is done: Male C57BL/6 mice with a weight range of 20-25 g (Hua Fu Kang, China) were used. Animals were fasted overnight and free access to food 4 hours after dosing.
Test compound (correction factor: 1.00) was dissolved in a 20% hydroxypropyl-β-cyclodextrin (HP-β-CD) at a final concentration of 1 mg/ml for the intravenous (IV) formulation and at final concentrations of 0.5 mg/ml for the oral (PO) formulation. The intravenous formulation was dosed at 2 ml/kg to obtain a dose of 2 mg/kg. The oral formulations were dosed at 10 ml/kg to obtain final doses of 5 mg/kg.
Blood samples were taken at 7 and 20 min, 1, 2, 4, 8 and 24 h after intravenous dose administration. Blood and liver samples were taken at 30 min, 1, 2, 4, 8, 12 and 24 h after oral dose administration.
Approximately 0.020 mL blood will be collected into BD blood collection tubes containing K3-EDTA at each time point. Samples were placed immediately on melting ice and plasma was obtained following centrifugation at 4° C. for 5 minutes at approximately 4000×g. Plasma samples were adjusted to pH 3-4 by phosphoric acid and stored at −75±15° C. prior to analysis. The whole process was completed within 1 hour.
Liver samples were collected at adopted time point, and the vial containing the tissues sample was snap-frozen in liquid nitrogen right away and kept at −75±15° C. prior to analysis. All liver samples were weighed and homogenized with phosphoric acid solution (pH to 3-4) by liver weight (g) to phosphoric acid solution volume (mL) ratio 1:4 before analysis.
Plasma and liver samples were analyzed using LC-MS/MS methods. The lower limit of quantification (LLOQ) for plasma was 1.0 ng/ml and for liver was 2.5 ng/g. A non-compartmental analysis using the “Linear up log down” rule was used for all data. A limited pharmacokinetic analysis was performed using Phoenix™ Professional (Version 6.1).

Series [2] in a line: Cytotoxicity determination in HepG2.2.15 cells (CCK-8 assay). The series is classed as cell-based. The note with it: human, 6 days treatment, CCK-8, highest concentration 100 uM. In a few lines:
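HepG2.2.15 cells (5,000/well, 2% FBS medium) were treated for 6 days, with medium and compound refreshed at day 3. Dosing was an 8-point 1:3 series from 100 uM, in triplicate. Viability was measured by CCK-8 after 2.5 h at 37 °C (A450, 630 nm reference), and CC50 was calculated.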
(Tetrazolium dyes change colour on reduction, which living cells bring about.)

The nature of series [3]: Pharmacokinetic study after intravenous and oral administration in male SD rats. It counts as in vivo. The note with it: for clearance / Cmax: male, SD; for clearance / IV AUCinf/Dose: IV, nominal 2 mg/kg; for clearance: read-out: IV Cl; for Cmax / PO AUCinf/Dose: PO; for Cmax: nominal 5 mg/kg; for F: PO vs IV. As for the experimental part:
Male SD rats with a weight range of 250-300 g (Si Bei Fu Laboratory Animal Technology Co. Ltd, China) were used. Animals were fasted overnight and free access to food 4 hours after dosing.
Test compound (correction factor: 1.00) was dissolved in a 20% hydroxypropyl-β-cyclodextrin (HP-β-CD) at a final concentration of 1 mg/ml for the intravenous (IV) formulation and at final concentrations of 0.5 mg/ml for the oral (PO) formulation.
The intravenous formulation was dosed at 2 ml/kg to obtain a dose of 2 mg/kg. The oral formulations were dosed at 10 ml/kg to obtain final doses of 5 mg/kg.
Blood samples were taken at 5, 15 and 30 min, 1, 2, 4, 8 and 24 h after intravenous dose administration. Blood samples were taken at 15 and 30 min, 1, 2, 4, 8, 12 and 24 h after oral dose administration.
Approximately 0.20 mL blood will be collected into BD blood collection tubes containing Sodium Fluoride (NaF), Potassium Oxalate (KoX) and K3-EDTA at each time point. Samples were placed immediately on melting ice and plasma was obtained following centrifugation at 4° C. for 5 minutes at approximately 4000×g. Plasma samples were adjusted to pH 3-4 by phosphoric acid and stored at −75±15° C. prior to analysis. The whole process was completed within 1 hour.
Plasma samples were analyzed using LC-MS/MS methods. The lower limit of quantification (LLOQ) for plasma was 1.0 ng/ml.
A non-compartmental analysis using the “Linear up log down” rule was used for all data. A limited pharmacokinetic analysis was performed using Phoenix™ Professional (Version 6.1). Results: See table 10 below for plasma PK results.

A further series has as its system HBV. The series can be described thus: Anti-viral assay in HepG2.2.15 cells: anti-HBV activity, HBV DNA in culture medium by qPCR. The series is classed as cell-based. To be noted: HepG2.2.15 cells, 6 days treatment, HBV DNA by qPCR; read-out: EC50. In outline:
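Cells in 2% FBS medium treated 6 days, compound and medium refreshed at day 3; 8-point 1:3 dilutions in triplicate, top 10 or 1 uM (antiviral) and 100 uM (cytotoxicity). Extracellular viral DNA quantified by qPCR, giving EC50 and CC50.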

[4] abbreviates: mice, read-out: AUCInf Ratio (Liver/Plasma).
Where [5] appears, read: mice, read-out: Cmax Ratio (Liver/Plasma).
[6] abbreviates: rat plasma, comparing with reference 2.

Where two headings read alike, the source gives them in different places.

As usually defined, the Cmax is the highest concentration seen after dosing. In general, CC50 refers to the concentration that lowers cell viability or growth by half. Read a low CC50 as greater toxicity to the cells. One may read the EC50 as the concentration at which the effect is half-maximal. Take `CCOC(=O)C1=C(CN2CCN3C(=S)N(CC(C)(C)C(=O)O)CC3C2)NC(c2nccs2)=N[C@H]1c1cccc(F)c1C` (single isomer, unassigned) [Compound 1A]: the Kp in series [1] (setting [4]) was 17.5. The Kp in series [1] (setting [5]) turned out to be 14. In series [1] (mice plasma), the clearance was determined as 16.6 mL/min/kg, the Cmax was found to be 2350 ng/mL, the “IV AUCinf/Dose” value worked out at 1078.3 ng·kg·h/mg/mL and the “PO AUCinf/Dose” value came to 784.8 ng·kg·h/mg/mL. In addition, in series [1] (mice liver), the “Liver AUCinf/Dose” value stood at 13733 ng·kg·h/g/mg and the “Liver Cmax/Dose” value is 6225 kg·ng/mg/mL. The “dose-normalized Cmax and dose-normalized AUCinf in liver, in words” value in series [1] (mice liver, comparing with reference 1 and reference 2) is on record as “far increased”. Moreover, the “clearance, in words” value in series [1] (mice plasma, comparing with reference 1 and reference 2) is listed as “far slower clearance”. In addition, the F in series [1] (mice) is 72.9%. For the same compound, the “bioavailability in plasma, in words” value in series [1] (mice, comparing with reference 1 and reference 2) is “increased bioavailability”. The compound further displayed a CC50 at 6 days in series [2] of 22.5 µM. In series [3] (rat plasma), the clearance was 11.6 mL/min/kg, the peak level (Cmax) was 4060 ng/mL, the “IV AUCinf/Dose” value was found to be 1578.1 ng·kg·h/mg/mL and the “PO AUCinf/Dose” value was 1780.7 ng·kg·h/mg/mL. Also, in series [3] (setting [6]), the “clearance, in words” value was “far slower clearance” and the “dose-normalized AUC (AUCinf/Dose), in words” value is listed as “over two-folds higher”. Moreover, in series [3] (rat), the F is reported as 113%. Further, in series [3] (rat, comparing with reference 2), the “bioavailability (F (%)), in words” value is recorded as “increased (or equal) bioavailability”. The EC50 in the series on HBV came to 6.3 nM.
In the case of `CCOC(=O)C1=C(CN2CCN3C(=O)N(CC(C)(C)C(=O)O)C[C@@H]3C2)NC(c2nccs2)=N[C@H]1c1cccc(F)c1C` [Reference 2, reference compound], the Kp in series [1] (setting [4]) worked out at 15.9. In series [1] (setting [5]), the Kp turned out to be 12.2. Moreover, in series [1] (mice plasma), the clearance came to 49.1 mL/min/kg, the peak level (Cmax) was 733 ng/mL, the “IV AUCinf/Dose” value is 345.2 ng·kg·h/mg/mL and the “PO AUCinf/Dose” value is 181.5 ng·kg·h/mg/mL. Besides, in series [1] (mice liver), the “Liver AUCinf/Dose” value amounted to 2894 ng·kg·h/g/mg and the “Liver Cmax/Dose” value was 1676 kg·ng/mg/mL. Also, the F in series [1] (mice) worked out at 52.7%. In series [3] (rat plasma), the clearance was determined as 65.6 mL/min/kg, the Cmax stood at 332 ng/mL, the “IV AUCinf/Dose” value worked out at 254.9 ng·kg·h/mg/mL and the “PO AUCinf/Dose” value is 129.7 ng·kg·h/mg/mL. The F in series [3] (rat) was determined as 50.8%.
